In US9120749B2, “Quinoline derivatives and MELK inhibitors containing the same” (ONCOTHERAPY SCIENCE, INC., priority 2010, dated 2015):

Assays:
[1] = system: HT-1197 cells; experiment: Cell-based assay: anti-proliferative activity, Cell Counting Kit-8, 72 hours (HT-1197, negative control without MELK expression); conditions: Homo sapiens, HT1197, 72 h, HT1197 cells (negative control, no MELK expression), 72 hours
How it was run: (§1)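 Cellular growth is read by CCK-8 colorimetric kit 72 h after inhibitor addition to seeded cells, and IC50 values are derived from the resulting data; MELK protein levels in these lines are checked beforehand by immunoblotting whole crude lysate.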

[2] = system: A549 cells; experiment: Cell-based assay: anti-proliferative activity, Cell Counting Kit-8, 72 hours (A549); conditions: Homo sapiens, A549, 72 h, 72 hours
How it was run: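 A549 cells seeded in 96-well plates and exposed to candidate inhibitors for 72 hours. Growth measured with Cell Counting Kit-8; IC50 values calculated from the dose response.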

[3] = system: DU4475 cells; experiment: Cell-based assay: anti-proliferative activity, Cell Counting Kit-8, 72 hours (DU4475); conditions: Homo sapiens, DU-4475, 72 h
[4] = target: MELK (Homo sapiens, UniProt Q14680); experiment: Kinase assay: MELK activity, phosphorylation of FITC-labeled histone H3 peptide measured by IMAP fluorescence polarization; assay type: biochemical; conditions: read-out: IC50 (μM) (kinase assay)
Sequence of MELK (Q14680 whole entry, looked up): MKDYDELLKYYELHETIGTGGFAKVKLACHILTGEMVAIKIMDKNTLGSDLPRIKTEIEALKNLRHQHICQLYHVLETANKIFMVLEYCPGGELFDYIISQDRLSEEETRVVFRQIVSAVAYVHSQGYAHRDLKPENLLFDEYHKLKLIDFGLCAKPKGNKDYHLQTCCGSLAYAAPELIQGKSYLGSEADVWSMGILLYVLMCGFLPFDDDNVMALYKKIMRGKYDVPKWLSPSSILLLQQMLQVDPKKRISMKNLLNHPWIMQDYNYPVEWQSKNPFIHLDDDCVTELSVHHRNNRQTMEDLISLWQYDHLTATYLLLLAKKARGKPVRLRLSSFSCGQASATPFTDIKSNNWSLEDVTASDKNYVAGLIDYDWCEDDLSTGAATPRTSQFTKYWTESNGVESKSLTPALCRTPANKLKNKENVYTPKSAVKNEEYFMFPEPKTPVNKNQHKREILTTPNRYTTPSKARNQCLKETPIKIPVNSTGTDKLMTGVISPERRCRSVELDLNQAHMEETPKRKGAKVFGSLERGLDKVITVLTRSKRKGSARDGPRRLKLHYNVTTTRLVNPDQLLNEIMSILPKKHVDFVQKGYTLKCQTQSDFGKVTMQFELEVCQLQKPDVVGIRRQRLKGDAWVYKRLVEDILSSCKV
How it was run: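 FP readout: FITC-histone H3 peptide phosphorylation, read 0.5 h (RT) after stopping with 3x volume of IMAP progressive binding solution. Final DMSO 1%.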

[5] = system: T47D cells; experiment: Cell-based assay: anti-proliferative activity, Cell Counting Kit-8, 72 hours (T47D); conditions: Homo sapiens, T47D, 72 h
How it was run: as §1

SMILES | IC50 [1] | IC50 [2] | IC50 [3] | IC50 [4] | IC50 [5]
CN(C)C1CCN(c2ccc(Nc3c(C(=O)C4CC4)cnc4ccc(-c5cc(Cl)c(O)c(Cl)c5)cc34)cn2)C1 (stereo not drawn) [Example 690, cyclopropyl(6-(3,5-dichloro-4-hydroxyphenyl)-4-(6-(3-(dimethylamino)pyrrolidin-1-yl)pyridin-3-ylamino)quinolin-3-yl)methanone] | 4 µM | 0.3 µM | 0.19 µM | 0.0047 µM | 0.25 µM
N[C@@H]1CCCN(c2ccc(Nc3c(C(=O)C4CC4)cnc4ccc(-c5cc(Cl)c(O)c(Cl)c5)cc34)cn2)C1 [Example 650, (R)-(4-(6-(3-aminopiperidin-1-yl)pyridin-3-ylamino)-6-(3,5-dichloro-4-hydroxyphenyl)quinolin-3-yl)(cyclopropyl)methanone] | 0.32 µM | 0.015 µM | 0.0072 µM | 0.001 µM | 0.0099 µM
CC(=O)c1cnc2ccc(-c3cc(F)c(O)c(Cl)c3)cc2c1Nc1ccc(CCN(C)C)cc1 [Example 745, 1-(6-(3-chloro-5-fluoro-4-hydroxyphenyl)-4-(4-(2-(dimethylamino)ethyl)phenylamino)quinolin-3-yl)ethanone] | 0.99 µM | 0.16 µM | 0.063 µM | 0.0083 µM | 0.12 µM
O=C(c1cnc2ccc(-c3cc(F)c(O)c(Cl)c3)cc2c1Nc1ccc(CN2CCCC2)nc1)C1CC1 [Example 672, (6-(3-chloro-5-fluoro-4-hydroxyphenyl)-4-(6-(pyrrolidin-1-ylmethyl)pyridin-3-ylamino)quinolin-3-yl)(cyclopropyl)methanone] | 3.2 µM | 0.17 µM | 0.16 µM | 0.014 µM | 0.39 µM
NC1CCCN(c2ccc(Nc3c(C(=O)C4CC4)cnc4ccc(-c5cc(F)c(O)c(F)c5)cc34)cn2)C1 (stereo not drawn) [Example 725, (4-(6-(3-Aminopiperidin-1-yl)pyridin-3-ylamino)-6-(3,5-difluoro-4-hydroxyphenyl)quinolin-3-yl)(cyclopropyl)methanone] | 0.11 µM | 0.012 µM | 0.01 µM | 0.003 µM | 0.0078 µM
CN1CCN(Cc2ccc(Nc3c(C(=O)C4CC4)cnc4ccc(-c5cc(Cl)c(O)c(Cl)c5)cc34)cn2)CC1 [Example 682, cyclopropyl(6-(3,5-dichloro-4-hydroxyphenyl)-4-(6-((4-methylpiperazin-1-yl)methyl)pyridin-3-ylamino)quinolin-3-yl)methanone] | 14 µM | 0.7 µM | 0.32 µM | 0.018 µM | 0.55 µM
COc1cc(-c2ccc3ncc(C(=O)C4CC4)c(Nc4ccc(N5CCC[C@@H](N)C5)nc4)c3c2)cc(Cl)c1O [Example 649, (R)-(4-(6-(3-aminopiperidin-1-yl)pyridin-3-ylamino)-6-(3-chloro-4-hydroxy-5-methoxyphenyl)quinolin-3-yl)(cyclopropyl)methanone] | 1.4 µM | 0.15 µM | 0.077 µM | 0.0021 µM | 0.087 µM
CN1CCCC(n2cc(Nc3c(C(=O)C4CC4)cnc4ccc(-c5cc(Cl)c(O)c(Cl)c5)cc34)cn2)C1 (stereo not drawn) [Example 703, Cyclopropyl{6-(3,5-dichloro-4-hydroxyphenyl)-4-[1-(1-methylpiperidin-3-yl)-1H-pyrazol-4-ylamino]quinolin-3-yl}methanone] | 5.5 µM | 0.11 µM | 0.052 µM | 0.0013 µM | 0.33 µM
COc1cc(-c2ccc3ncc(C(=O)C4CC4)c(Nc4ccc(CN5CCN(C)CC5)nc4)c3c2)cc(Cl)c1O [Example 683, (6-(3-chloro-4-hydroxy-5-methoxyphenyl)-4-(6-((4-methylpiperazin-1-yl)methyl)pyridin-3-ylamino)quinolin-3-yl)(cyclopropyl)methanone] | 9.8 µM | 1.2 µM | 1.3 µM | 0.016 µM | 0.69 µM
CC(=O)c1cnc2ccc(-c3cc(F)c(O)c(Cl)c3)cc2c1Nc1ccc(CN2CCN(C)CC2)cc1 [Example 656, 1-(6-(3-chloro-5-fluoro-4-hydroxyphenyl)-4-(4-((4-methylpiperazin-1-yl)methyl)phenylamino)quinolin-3-yl)ethanone] | 6.1 µM | 0.41 µM | 0.27 µM | 0.033 µM | 0.19 µM
COc1cc(-c2ccc3ncc(C(=O)C4CC4)c(Nc4ccc(NCCO)nc4)c3c2)cc(Cl)c1O [Example 677, (6-(3-chloro-4-hydroxy-5-methoxyphenyl)-4-(6-(2-hydroxyethylamino)pyridin-3-ylamino)quinolin-3-yl)(cyclopropyl)methanone] | 1.5 µM | 0.36 µM | 0.38 µM | 0.014 µM | 0.33 µM
CCC(=O)c1cnc2ccc(-c3cc(F)c(O)c(Cl)c3)cc2c1N[C@H]1CC[C@H](CN(C)C)CC1 [Example 714, 1-(6-(3-chloro-5-fluoro-4-hydroxyphenyl)-4-((trans-4-((dimethylamino)methyl)cyclohexyl)amino)quinolin-3-yl)propan-1-one] | 0.55 µM | 0.11 µM | 0.067 µM | 0.004 µM | 0.054 µM
CCC(=O)c1cnc2ccc(-c3cc(Cl)c(O)c(Cl)c3)cc2c1Nc1ccc(N2CCN(C)CC2)nc1 [Example 737, 1-(6-(3,5-dichloro-4-hydroxyphenyl)-4-(6-(4-methylpiperazin-1-yl)pyridin-3-ylamino)quinolin-3-yl)propan-1-one] | 10 µM | 0.29 µM | 0.27 µM | 0.055 µM | 0.31 µM
CC(=O)c1cnc2ccc(-c3cc(F)c(O)c(Cl)c3)cc2c1N[C@H]1CC[C@H](CN2CCCC2)CC1 [Example 731] | 1.3 µM | 0.17 µM | 0.13 µM | 0.0047 µM | 0.11 µM
O=C(c1cnc2ccc(-c3cc(F)c(O)c(Cl)c3)cc2c1NC1CCC(N2CC[C@@H](F)C2)CC1)C1CC1 (stereo partly drawn) [Example 642, (R)-(6-(3-chloro-5-fluoro-4-hydroxyphenyl)-4-(4-(3-fluoropyrrolidin-1-yl)cyclohexylamino)quinolin-3-yl)(cyclopropyl)methanone] | 0.76 µM | 0.2 µM | 0.11 µM | 0.0075 µM | 0.17 µM
COc1cc(-c2ccc3ncc(C(=O)C4CC4)c(NC4CCC(N5CC[C@@H](F)C5)CC4)c3c2)cc(Cl)c1O (stereo partly drawn) [Example 645, (R)-(6-(3-chloro-4-hydroxy-5-methoxyphenyl)-4-(4-(3-fluoropyrrolidin-1-yl)cyclohexylamino)quinolin-3-yl)(cyclopropyl)methanone] | 2.2 µM | 0.33 µM | 0.29 µM | 0.0062 µM | 0.45 µM
CC(=O)c1cnc2ccc(-c3cc(F)c(O)c(F)c3)cc2c1N[C@H]1CC[C@H](CN(C)C)CC1 [Example 721] | 3.4 µM | 0.32 µM | 0.22 µM | 0.035 µM | 0.15 µM
CN(C)C1CCN(c2ccc(Nc3c(C(=O)C4CC4)cnc4ccc(-c5cc(F)c(O)c(Cl)c5)cc34)cn2)C1 (stereo not drawn) [Example 691, (6-(3-chloro-5-fluoro-4-hydroxyphenyl)-4-(6-(3-(dimethylamino)pyrrolidin-1-yl)pyridin-3-ylamino)quinolin-3-yl)(cyclopropyl)methanone] | 5.9 µM | 0.32 µM | 0.22 µM | 0.012 µM | 0.18 µM
